Assay results: paper PMC4862888 (Journal of chromatography. B, Analytical technologies in …, 2015)

biological target: human serum albumin (HSA) (Homo sapiens, UniProt P02768); assay: zonal elution, high-performance affinity chromatography on entrapped HSA; format: binding
Sequence (P02768 25-609): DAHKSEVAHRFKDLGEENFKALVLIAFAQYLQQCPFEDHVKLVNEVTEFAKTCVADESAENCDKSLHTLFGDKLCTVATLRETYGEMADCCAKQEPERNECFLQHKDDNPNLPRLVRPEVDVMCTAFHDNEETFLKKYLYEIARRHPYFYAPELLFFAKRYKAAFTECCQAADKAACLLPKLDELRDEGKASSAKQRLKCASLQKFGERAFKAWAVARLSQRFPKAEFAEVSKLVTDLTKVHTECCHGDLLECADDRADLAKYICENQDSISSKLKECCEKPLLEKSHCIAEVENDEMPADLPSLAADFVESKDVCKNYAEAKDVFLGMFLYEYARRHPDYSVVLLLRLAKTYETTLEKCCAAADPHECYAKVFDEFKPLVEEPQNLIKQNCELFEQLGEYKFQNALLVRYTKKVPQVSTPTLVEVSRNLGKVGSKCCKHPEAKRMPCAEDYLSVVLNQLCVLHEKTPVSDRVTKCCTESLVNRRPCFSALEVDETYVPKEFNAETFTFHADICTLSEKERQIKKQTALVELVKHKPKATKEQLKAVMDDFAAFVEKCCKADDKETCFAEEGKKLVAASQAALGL

Structure (SMILES) | Kd [µM]
CN(C)CCC=C1c2ccccc2CCc2ccccc21 [amitriptyline] | 17.9
CNCCC=C1c2ccccc2CCc2ccccc21 [nortriptyline] | 16.1
O=C(N[C@H](CO)[C@H](O)c1ccc([N+](=O)[O-])cc1)C(Cl)Cl [chloramphenicol] | 625
